Data set [1] addresses T1, SMAD3 (Homo sapiens, UniProt P84022).
T1 construct: NK-92 cells were pretreated with SIS3 at various concentrations for 2 hours; endogenous in cells; host or cells: NK-92 (human NK cell line)
As to the kind of experiment: Blockade of Smad3 in NK-92 cells under TGF-β1: E4BP4 and IFN-γ levels. Format: cell-based. The conditions noted are these: high TGF-β1 (5 ng/ml), SIS3 5 μM. On the procedure:
To reveal the regulatory role of SMAD3 and E4BP4 in the production of IFN-γ in NK-92 cells, a specific inhibitor of SMAD3 known as SIS3 (Sigma) was used in this study. Briefly, NK-92 cells were pretreated with SIS3 at various concentrations for 2 hours. The cells were then treated with TGF-β1 at the final concentration of 5 ng/ml for 45 min and harvested for detection of the phosphorylation level of SMAD3 with western blot. The dosage of SIS3 that induced the maximum effect of phosphorylation inhibition of SMAD3 was determined as the optimal dosage of SIS3 used in further experiment. NK-92 cells were then pretreated with or without SIS3 at the determined concentration for 2 hours followed by stimulation with TGF-β1 at the final concentration of 5 ng/ml for 12 hours. The cells were harvested to detect the level of E4BP4 and IFN-γ.

In data set [2] the test system is SMAD3. As to the kind of experiment: SMAD3 knockdown in NK-92 cells, real-time PCR and western blot. In kind it is cell-based, human. On the procedure:
NK-92 cells were transduced with rLV-hSMAD3 and selected with puromycin (InvivoGen). Briefly, NK-92 cells were seeded in a 24-well plate at a density of 1×10^6/ml and mixed with ploybrene (Santa Cruz) at final concentration of 5 ug/ml and rLV-hSmad3 at MOI (multiplicity of infection) equal to 50 overnight at 37° C. The transduced cells were then expanded in complete medium and selected with puromycin at a final concentration of 2 ug/ml. The expression level of SMAD3 in the puromycin resistant clone was determined by real-time PCR with corresponding primers (Table 2) and Western blot analysis with rabbit anti human SMAD3 antibody (Abcam) respectively.
Total RNA from cells was isolated using the PureLink™ RNA Mini kit (Life Technologies) according to the manufacturer's instruction. The reverse transcription reaction was conducted with C1000 thermal cycler. The cDNA was then diluted with 40 ul RNase-free water and used as the template in real-time polymerase chain reaction.

This is an account of results in patent US20180221463A1, “Modified NK Cells and Uses Thereof” (priority 2017, published 2018).

T1 sequence (P84022 whole entry): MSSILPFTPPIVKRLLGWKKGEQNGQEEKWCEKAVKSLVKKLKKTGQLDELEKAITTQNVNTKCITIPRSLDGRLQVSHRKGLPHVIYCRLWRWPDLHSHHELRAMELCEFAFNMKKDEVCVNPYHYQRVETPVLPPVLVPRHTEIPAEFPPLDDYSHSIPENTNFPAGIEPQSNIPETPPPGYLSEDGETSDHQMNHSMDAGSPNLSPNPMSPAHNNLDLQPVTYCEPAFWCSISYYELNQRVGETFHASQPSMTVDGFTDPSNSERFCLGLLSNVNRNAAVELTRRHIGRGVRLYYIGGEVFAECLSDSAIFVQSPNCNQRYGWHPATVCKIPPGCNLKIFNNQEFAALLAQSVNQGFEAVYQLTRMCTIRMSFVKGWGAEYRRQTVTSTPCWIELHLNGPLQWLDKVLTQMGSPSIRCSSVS

For `COc1cc2c(cc1OC)CN(C(=O)/C=C/c1c(-c3ccccc3)n(C)c3ncccc13)CC2` [SIS3], in data set [1], the “expressions of E4BP4 mRNA and protein” value was “markedly increase”; the “production of IFN-γ” value was “markedly increase”.

For “shRNA-hSmad3: shRNA specifically against human SMAD3 mRNA, sequence GGAGAAATGGTGCGAGAAG (Table 3), delivered by lentivirus (shRNA hairpin; lentiviral delivery)”, the “mRNA expression of SMAD3” value in data set [2] (real-time PCR) is “largely down-regulated”. Besides, in data set [2] (western blot), the “decrease in SMAD3 protein” value is on record as “more than 70%”.
